Laboratory results reported in patent publication US20260132132A1, “3A,4,5,6-TETRAHYDRO-1 H-PYRAZOLO[3,4-C]PYRIDIN-7(7AH)-ONE DERIVATIVES AS FACTOR XIIA INHIBITORS” (KALVISTA PHARMACEUTICALS LIMITED, priority 2022, published 2026).

Columns and labels:
[1] = molecular target: T1, Human Factor XIIa (hFXIIa) (Homo sapiens, UniProt P00748); test: Determination of Human Factor XIIa (hFXIIa) inhibition, fluorogenic substrate IC50 assay; assay type: biochemical; details: fluorogenic substrate H-DPro-Phe-Arg-AFC at Km, 25° C., read-out: Human FXIIa IC50
T1 construct: purchased Enzyme Research Laboratories
T1 sequence (P00748 373-615 limits assumed): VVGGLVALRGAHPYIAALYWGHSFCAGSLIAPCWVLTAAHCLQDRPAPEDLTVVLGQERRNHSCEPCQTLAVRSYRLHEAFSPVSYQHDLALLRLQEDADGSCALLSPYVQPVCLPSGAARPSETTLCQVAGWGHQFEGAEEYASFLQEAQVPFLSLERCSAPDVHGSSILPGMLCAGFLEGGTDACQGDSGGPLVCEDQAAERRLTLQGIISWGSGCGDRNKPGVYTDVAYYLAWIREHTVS
T1 sequence (P00748 20-372 partner limits assumed): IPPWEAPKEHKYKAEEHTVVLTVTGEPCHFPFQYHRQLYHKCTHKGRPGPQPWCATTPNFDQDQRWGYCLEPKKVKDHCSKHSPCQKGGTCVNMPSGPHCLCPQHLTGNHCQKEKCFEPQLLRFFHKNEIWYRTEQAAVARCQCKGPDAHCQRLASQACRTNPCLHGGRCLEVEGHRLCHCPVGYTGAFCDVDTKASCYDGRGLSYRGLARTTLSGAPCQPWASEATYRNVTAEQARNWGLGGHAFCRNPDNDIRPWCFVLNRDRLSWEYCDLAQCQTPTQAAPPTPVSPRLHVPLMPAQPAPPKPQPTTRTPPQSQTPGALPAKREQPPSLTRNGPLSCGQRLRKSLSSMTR
Experimental: Determination of Human Factor XIIa (hFXIIa) inhibition
The Km for the cleavage of the substrate by hFXIIa was determined by standard transformation of the Michaelis-Menten equation, with subsequent inhibition assays performed at substrate Km concentration.

[2] = molecular target: FXa (Homo sapiens, UniProt P00742); test: Related protease inhibition: FXa, fluorogenic substrate; assay type: biochemical; details: fluorogenic substrate at Km, 25° C.; H1-H3 = % activity at 40 μM
FXa, sequence (P00742 235-488 limits assumed): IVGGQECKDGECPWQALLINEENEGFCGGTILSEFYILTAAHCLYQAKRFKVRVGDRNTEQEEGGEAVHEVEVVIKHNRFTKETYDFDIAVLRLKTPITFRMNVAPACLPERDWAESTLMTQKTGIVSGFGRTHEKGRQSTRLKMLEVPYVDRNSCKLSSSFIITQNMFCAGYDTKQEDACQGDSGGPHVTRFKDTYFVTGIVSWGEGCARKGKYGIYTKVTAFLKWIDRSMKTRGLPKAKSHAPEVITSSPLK
FXa, sequence (P00742 41-179 partner limits assumed): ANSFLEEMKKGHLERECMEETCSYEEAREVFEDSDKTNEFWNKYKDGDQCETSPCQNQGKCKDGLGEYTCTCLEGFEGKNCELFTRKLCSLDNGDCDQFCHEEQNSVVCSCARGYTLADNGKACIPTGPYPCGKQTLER
Experimental: Human serine protease enzyme Plasma Kallikrein, KLK1, FXa, Plasmin, Thrombin and Trypsin were assayed for enzymatic activity using an appropriate fluorogenic substrate at Km concentration, FXIa at fixed substrate concentration of 100 μM and various concentrations of the test compound.

Structure (SMILES): CCNC(=O)c1nn(-c2cc(C)cc(CN)c2)c2c1CCN(c1ccc3c(c1)C(=O)N(C)CC3)C2=O [Example 2024, 1-(3-(aminomethyl)-5-methylphenyl)-N-ethyl-6-(2-methyl-1-oxo-1,2,3,4-tetrahydroisoquinolin-7-yl)-7-oxo-4,5,6,7-tetrahydro-1H-pyrazolo[3,4-c]pyridine-3-carboxamide]
- IC50 [1]: 0.01 to 0.1 µM
- IC50 [2]: > 40 µM

Structure (SMILES): Cc1cc(CN)cc(-n2nc(C(=O)O)c3c2C(=O)N(c2ccc4c(c2)C(=O)N(C)CC4)CC3)c1 [Example 2025, 1-(3-(aminomethyl)-5-methylphenyl)-6-(2-methyl-1-oxo-1,2,3,4-tetrahydroisoquinolin-7-yl)-7-oxo-4,5,6,7-tetrahydro-1H-pyrazolo[3,4-c]pyridine-3-carboxylic acid]
- IC50 [1]: 0.01 to 0.1 µM
- IC50 [2]: 10 to 40 µM

Structure (SMILES): CCNC(=O)c1nn(-c2cncc(C)c2)c2c1CCN(c1ccc3c(c1)C(=O)N(C)CC3)C2=O [Example 2027, N-ethyl-6-(2-methyl-1-oxo-1,2,3,4-tetrahydroisoquinolin-7-yl)-1-(5-methylpyridin-3-yl)-7-oxo-4,5,6,7-tetrahydro-1H-pyrazolo[3,4-c]pyridine-3-carboxamide]
- IC50 [1]: 3 to 10 µM
- IC50 [2]: > 40 µM

Structure (SMILES): CCNC(=O)c1nn(-c2ccc(C)cn2)c2c1CCN(c1ccc3c(c1)C(=O)N(C)CC3)C2=O [Example 2028, N-ethyl-6-(2-methyl-1-oxo-1,2,3,4-tetrahydroisoquinolin-7-yl)-1-(5-methylpyridin-2-yl)-7-oxo-4,5,6,7-tetrahydro-1H-pyrazolo[3,4-c]pyridine-3-carboxamide]
- IC50 [1]: 10 to 40 µM
- IC50 [2]: > 40 µM

Structure (SMILES): CCNC(=O)c1nn(-c2cc(Cl)ccc2C)c2c1CCN(c1ccc3c(c1)C(=O)N(C)CC3)C2=O [Example 2029, 1-(5-chloro-2-methylphenyl)-N-ethyl-6-(2-methyl-1-oxo-1,2,3,4-tetrahydroisoquinolin-7-yl)-7-oxo-4,5,6,7-tetrahydro-1H-pyrazolo[3,4-c]pyridine-3-carboxamide]
- IC50 [1]: 10 to 40 µM
- IC50 [2]: > 40 µM

Structure (SMILES): CCNC(=O)c1nn(-c2cc(Cl)ccc2F)c2c1CCN(c1ccc3c(c1)C(=O)N(C)CC3)C2=O [Example 2030, 1-(5-chloro-2-fluorophenyl)-N-ethyl-6-(2-methyl-1-oxo-1,2,3,4-tetrahydroisoquinolin-7-yl)-7-oxo-4,5,6,7-tetrahydro-1H-pyrazolo[3,4-c]pyridine-3-carboxamide]
- IC50 [1]: 3 to 10 µM
- IC50 [2]: 10 to 40 µM

Structure (SMILES): CCNC(=O)c1nn(-c2cccc(C)c2F)c2c1CCN(c1ccc3c(c1)C(=O)N(C)CC3)C2=O [Example 2032, N-ethyl-1-(2-fluoro-3-methylphenyl)-6-(2-methyl-1-oxo-1,2,3,4-tetrahydroisoquinolin-7-yl)-7-oxo-4,5,6,7-tetrahydro-1H-pyrazolo[3,4-c]pyridine-3-carboxamide]
- IC50 [1]: 0.3 to 1 µM
- IC50 [2]: > 40 µM

Structure (SMILES): CCNC(=O)c1nn(-c2cc(Cl)cc(CO)c2)c2c1CCN(c1ccc3c(c1)C(=O)N(C)CC3)C2=O [Example 2033, 1-(3-chloro-5-(hydroxymethyl)phenyl)-N-ethyl-6-(2-methyl-1-oxo-1,2,3,4-tetrahydroisoquinolin-7-yl)-7-oxo-4,5,6,7-tetrahydro-1H-pyrazolo[3,4-c]pyridine-3-carboxamide]
- IC50 [1]: 0.3 to 1 µM
- IC50 [2]: > 40 µM

Structure (SMILES): CCNC(=O)c1nn(-c2cc(C)ccn2)c2c1CCN(c1ccc3c(c1)C(=O)N(C)CC3)C2=O [Example 2035, N-ethyl-6-(2-methyl-1-oxo-1,2,3,4-tetrahydroisoquinolin-7-yl)-1-(4-methylpyridin-2-yl)-7-oxo-4,5,6,7-tetrahydro-1H-pyrazolo[3,4-c]pyridine-3-carboxamide]
- IC50 [1]: 3 to 10 µM
- IC50 [2]: 10 to 40 µM

Structure (SMILES): CCNC(=O)c1nn(-c2cccc(Cl)c2C)c2c1CCN(c1ccc3c(c1)C(=O)N(C)CC3)C2=O [Example 2036, 1-(3-chloro-2-methylphenyl)-N-ethyl-6-(2-methyl-1-oxo-1,2,3,4-tetrahydroisoquinolin-7-yl)-7-oxo-4,5,6,7-tetrahydro-1H-pyrazolo[3,4-c]pyridine-3-carboxamide]
- IC50 [1]: 1 to 3 µM
- IC50 [2]: > 40 µM

Structure (SMILES): Cc1cc(CNC(=O)c2nn(-c3cccc(Cl)c3F)c3c2CCN(c2ccc4c(c2)C(=O)N(C)CC4)C3=O)n[nH]1 [Example 2040, 1-(3-chloro-2-fluorophenyl)-6-(2-methyl-1-oxo-1,2,3,4-tetrahydroisoquinolin-7-yl)-N-((5-methyl-1H-pyrazol-3-yl)methyl)-7-oxo-4,5,6,7-tetrahydro-1H-pyrazolo[3,4-c]pyridine-3-carboxamide]
- IC50 [1]: 0.01 to 0.1 µM
- IC50 [2]: 10 to 40 µM

Structure (SMILES): Cc1nc2c(C(=O)NCC3CC3)nn(-c3cccc(Cl)c3)c2c(=O)n1-c1ccc2c(c1)CN(CCO)CC2 [Example 3003, 1-(3-chlorophenyl)-N-(cyclopropylmethyl)-6-(2-(2-hydroxyethyl)-1,2,3,4-tetrahydroisoquinolin-7-yl)-5-methyl-7-oxo-6,7-dihydro-1H-pyrazolo[4,3-d]pyrimidine-3-carboxamide]
- IC50 [1]: 0.1 to 0.3 µM
- IC50 [2]: > 40 µM

Structure (SMILES): Cc1nc2c(C(=O)NCC3CC3)nn(-c3cccc(Cl)c3)c2c(=O)n1-c1ccc2c(c1)CN(C)CC2 [Example 3004, 1-(3-chlorophenyl)-N-(cyclopropylmethyl)-5-methyl-6-(2-methyl-1,2,3,4-tetrahydroisoquinolin-7-yl)-7-oxo-6,7-dihydro-1H-pyrazolo[4,3-d]pyrimidine-3-carboxamide]
- IC50 [1]: 0.1 to 0.3 µM
- IC50 [2]: 3 to 10 µM

Structure (SMILES): Cc1cn(C)nc1CNC(=O)c1nn(-c2cccc(Cl)c2)c2c(=O)n(-c3ccc4c(c3)CN(CCO)CC4)c(C)nc12 [Example 3005, 1-(3-Chlorophenyl)-N-[(1,4-dimethylpyrazol-3-yl)methyl]-6-[2-(2-hydroxyethyl)-3,4-dihydro-1H-isoquinolin-7-yl]-5-methyl-7-oxo-pyrazolo[4,3-d]pyrimidine-3-carboxamide]
- IC50 [1]: 0.01 to 0.1 µM
- IC50 [2]: 10 to 40 µM

Structure (SMILES): Cc1cn(C)nc1CNC(=O)c1nn(-c2cccc(Cl)c2)c2c(=O)n(-c3ccc4c(c3)CN(C)CC4)c(C)nc12 [Example 3006, 1-(3-chlorophenyl)-N-((1,4-dimethyl-1H-pyrazol-3-yl)methyl)-5-methyl-6-(2-methyl-1,2,3,4-tetrahydroisoquinolin-7-yl)-7-oxo-6,7-dihydro-1H-pyrazolo[4,3-d]pyrimidine-3-carboxamide]
- IC50 [1]: 0.01 to 0.1 µM
- IC50 [2]: 1 to 3 µM

Structure (SMILES): Cc1nc2c(CNS(=O)(=O)C3CC3)nn(-c3cccc(Cl)c3)c2c(=O)n1-c1ccc2c(c1)CN(CCO)CC2 [Example 3007, N-[[1-(3-Chlorophenyl)-6-[2-(2-hydroxyethyl)-3,4-dihydro-1H-isoquinolin-7-yl]-5-methyl-7-oxopyrazolo[4,3-d]pyrimidin-3-yl]methyl]cyclopropanesulfonamide]
- IC50 [1]: 0.3 to 1 µM
- IC50 [2]: 3 to 10 µM

Structure (SMILES): Cc1nc2c(CNC(=O)C3CC3)nn(-c3cccc(Cl)c3)c2c(=O)n1-c1ccc2c(c1)CN(CCO)CC2 [Example 3008, N-((1-(3-chlorophenyl)-6-(2-(2-hydroxyethyl)-1,2,3,4-tetrahydroisoquinolin-7-yl)-5-methyl-7-oxo-6,7-dihydro-1H-pyrazolo[4,3-d]pyrimidin-3-yl)methyl)cyclopropanecarboxamide]
- IC50 [1]: 0.3 to 1 µM
- IC50 [2]: 3 to 10 µM

Structure (SMILES): Cc1cn(C)nc1C(=O)NCc1nn(-c2cccc(Cl)c2)c2c(=O)n(-c3ccc4c(c3)CN(CCO)CC4)c(C)nc12 [Example 3009, N-[[1-(3-Chlorophenyl)-6-[2-(2-hydroxyethyl)-3,4-dihydro-1H-isoquinolin-7-yl]-5-methyl-7-oxopyrazolo[4,3-d]pyrimidin-3-yl]methyl]-1,4-dimethylpyrazole-3-carboxamide]
- IC50 [1]: 0.3 to 1 µM
- IC50 [2]: 3 to 10 µM

Structure (SMILES): Cc1ccncc1C(=O)NCc1nn(-c2cccc(Cl)c2)c2c(=O)n(-c3ccc4c(c3)CN(CCO)CC4)c(C)nc12 [Example 3010, N-((1-(3-chlorophenyl)-6-(2-(2-hydroxyethyl)-1,2,3,4-tetrahydroisoquinolin-7-yl)-5-methyl-7-oxo-6,7-dihydro-1H-pyrazolo[4,3-d]pyrimidin-3-yl)methyl)-4-methylnicotinamide]
- IC50 [1]: 0.3 to 1 µM
- IC50 [2]: 3 to 10 µM

Structure (SMILES): Cc1ccncc1CNC(=O)c1nn(-c2cccc(Cl)c2)c2c(=O)n(-c3ccc4c(c3)CN(CCO)CC4)c(C)nc12 [Example 3011, 1-(3-chlorophenyl)-6-(2-(2-hydroxyethyl)-1,2,3,4-tetrahydroisoquinolin-7-yl)-5-methyl-N-((4-methylpyridin-3-yl)methyl)-7-oxo-6,7-dihydro-1H-pyrazolo[4,3-d]pyrimidine-3-carboxamide]
- IC50 [1]: 0.01 to 0.1 µM
- IC50 [2]: 10 to 40 µM
